The values below come from patent US4529731A, “Thiadiazolediamine derivative with histamine H-2 receptor inhibiting properties” (American Home Products Corporation, priority 1983, dated 1985).

“Also recorded” adds a separate entry of the source.

In one data set the test system is histamine H-2 receptors. Kind of data set: inhibition of histamine H-2 receptors (statement in words).
Data set [1] relates to cold-restraint-induced gastric lesions. Nature of the data set: development of cold-restraint-induced gastric lesions (ulcers). It counts as in vivo, male albino rats (Sprague-Dawley). Particulars: p.o.; for ULCER SCORE (MEAN ± S.E.): number of ulcers in glandular stomach. The procedure:
Senay and R. J. Levine, Proc. Soc. Exp. Biol. Med., 124, 1221 (1967).
More explicitly exemplified, the beneficial effects were evaluated as follow: Food was withheld from male albino rats (165-175 g, Sprague-Dawley, Canadian Breeding Laboratories) for 24 hours but water was freely available. The object compound was administered orally in one milliliter of a liquid vehicle to the animals 30 minutes before placing the animals into restrainers. Just prior to being restrained, each animal was given orally 50 mg of sodium taurocholate. The vehicle empoloyed was saline containing polysorbate 80 (oleate ester of sorbitol and its anhydrides copolymerized with ethylene oxide), one drop per five milliliters of saline. The restrainers were made of plexiglass and restricted the movement of the rat to a minimum. The restrainers were placed in a cold environment (4°-5° C.) for three hours. The animals were sacrificed by cervical dislocation, the stomachs removed and the number of ulcers in the glandular portion of the stomach determined.

The nature of data set [2]: toxicity (statement in words).
Data set [3] deals with spontaneous gastric acid secretion in cannulated rats. Kind of data set: inhibiting spontaneous gastric acid secretion in cannulated rats. It counts as in vivo, Male albino Sprague Dawley rats. Particulars: for time after which a significant response ceases: cimetidine 80 mg/kg, ranitidine 60 mg/kg. From the text: Male albino Sprague Dawley rats (200-300 g), purchased from Canadian Breeding Laboratories, were employed. Two gastric cannulas were implanted surgically in each rat as described by L. E. Borella and F. Herr, Gastroenterology, 61, 345 (1971). The rats were used two to three weeks after the operation at a time when their food intake and weight gain were similar to the food intake and weight gain of unoperated litter mates. […] Prior to each experiment, the plugs of the stomach cannulas of each rat were removed and the debris present in the stomach was flushed out with tepid saline passed through the cannulas. Thereafter, the lumen of the stomach was continuously perfused with saline introduced into the stomach through the forestomach cannula at a rate of 0.8-1.2 ml/min. […] On the basis of the hourly acid output, the rats were divided into equal groups so that the average acid output of all groups was similar. Saline (vehicle) or saline suspensions or solutions of the test compounds were administered intragastrically (i.g.) through the forestomach cannula, after having closed the antral cannula. During the one hour absorption period, the stomachs of the rats were not perfused. […] The average post-treatment hourly acid outputs of the test compound groups were compared to that of the saline group and the percent inhibition of acid output was calculated. Multiple statistical comparisons between groups was done using Dunnet's test, C. W. Dunnet, Journal of American Statistical Association, 50, 1096 (1955).

Where [4] appears, read: 1 hr after dosing, peroral, object compound 80, cimetidine 80, ranitidine 60 mg/kg.
Setting [5] is: 2 hr after dosing, peroral, object compound 80, cimetidine 80, ranitidine 60 mg/kg.
Where [6] appears, read: 3 hr after dosing, peroral, object compound 80, cimetidine 80, ranitidine 60 mg/kg.
[7] abbreviates: 4 hr after dosing, peroral, object compound 80, cimetidine 80, ranitidine 60 mg/kg, cimetidine value = last statistically significant (*).
The mark [8] stands for this setting: 5 hr after dosing, peroral, object compound 80, cimetidine 80, ranitidine 60 mg/kg, ranitidine value = last statistically significant (*).
Where [9] appears, read: 6 hr after dosing, peroral, object compound 80, ranitidine 60 mg/kg.
The mark [10] stands for this setting: 7 hr after dosing, peroral, object compound 80, ranitidine 60 mg/kg.

`CN(C)CCNc1n[s+]([O-])nc1NCCCOc1cccc(CN2CCCCC2)c1` (stereo not shown) [Object compound, N-[2-(dimethylamino)ethyl]-N'-[3-[3-[(1-piperidinyl)methyl]phenoxy]propyl]-1,2,5-thiadiazole-3,4-diamine, 1-oxide]: the “inhibition of histamine H-2 receptors” value with histamine H-2 receptors is “effective inhibitor of histamine H-2 receptors; also recorded: specifically inhibits H-2 histamine receptors”. Moreover, the “% INHIBITION (ulcer score)” value in data set [1] (1 mg/kg) worked out at 44%; in data set [1] (5 mg/kg, * p < 0.05), 89%; in data set [1] (20 mg/kg, ** p < 0.01), 95%. The “ULCER SCORE (MEAN ± S.E.)” value is 10 ± 9 in data set [1] (1 mg/kg), 2 ± 1 in data set [1] (5 mg/kg) and 0.9 ± 0.5 in data set [1] (20 mg/kg). Also, the “order of toxicity” value in data set [2] was “relatively low order of toxicity”. For the same compound, the “% INHIBITION OF ACID OUTPUT AT VARIOUS TIMES (HR) AFTER DOSING” value came out at 88% in data set [3] (setting [4]); 95% in data set [3] (setting [5]); 96% in data set [3] (setting [6]); 95% in data set [3] (setting [7]); 94% in data set [3] (setting [8]); 85% in data set [3] (setting [9]). In addition, the “% INHIBITION OF ACID OUTPUT AT VARIOUS TIMES (HR) AFTER DOSING” value in data set [3] (setting [10]) is reported as 61%; in data set [3] (8 hr after dosing, peroral, object compound 80 mg/kg), 52%; in data set [3] (9 hr after dosing, peroral, object compound 80 mg/kg) it was 63%; in data set [3] (10 hr after dosing, peroral, object compound 80 mg/kg), 64%; in data set [3] (18 hr after dosing, peroral, object compound 80 mg/kg), 32%; in data set [3] (19 hr after dosing, peroral, object compound 80 mg/kg, last statistically significant value (*)), 29%. In addition, in data set [3] (20 hr after dosing, peroral, object compound 80 mg/kg), the “% INHIBITION OF ACID OUTPUT AT VARIOUS TIMES (HR) AFTER DOSING” value is on record as 7%. Further, the “% INHIBITION OF 3 HOURS GASTRIC ACID OUTPUT” value in data set [3] (peroral dose 20 mg/kg, rat) stood at 36%; in data set [3] (peroral dose 40 mg/kg, rat) it was 65%; in data set [3] (peroral dose 80 mg/kg, rat), 74%. In data set [3] (peroral, object compound 80, cimetidine 80, ranitidine 60 mg/kg), the “duration of effect compared with cimetidine and ranitidine” value is reported as “longer acting effect”. Moreover, in data set [3] (rat, in vivo), the “duration of action” value is listed as “long acting properties”.
As to `CN/C(=N/CCSCc1nc[nH]c1C)NC#N` [cimetidine, reference compound], the “% INHIBITION OF ACID OUTPUT AT VARIOUS TIMES (HR) AFTER DOSING” value in data set [3] (setting [4]) turned out to be 84%; in data set [3] (setting [5]) it was 84%; in data set [3] (setting [6]), 63%; in data set [3] (setting [7]), 52%; in data set [3] (setting [8]), 3%. For the same compound, the “time after which a significant response ceases” value in data set [3] (peroral) worked out at 5 h.
On to `CNC(=C[N+](=O)[O-])NCCSCc1ccc(CN(C)C)o1` [ranitidine, reference compound], for which the “% INHIBITION OF ACID OUTPUT AT VARIOUS TIMES (HR) AFTER DOSING” value in data set [3] (setting [4]) came out at 69%; in data set [3] (setting [5]), 81%; in data set [3] (setting [6]), 65%; in data set [3] (setting [7]) it was 63%; in data set [3] (setting [8]), 44%; in data set [3] (setting [9]), 39%. Further, in data set [3] (setting [10]), the “% INHIBITION OF ACID OUTPUT AT VARIOUS TIMES (HR) AFTER DOSING” value was 6%. Moreover, the “time after which a significant response ceases” value in data set [3] (peroral) is 6 h.
